# Test results published in patent publication US6147097A, “Imidazole derivatives as anti-HIV agents” (Shionogi & Co., Ltd., priority 1994, dated 2000).
# Where two headings read alike, the source gives them in different places.
# How the values were obtained:
# [1] = cytotoxicity in MT-4 cells (MTT, culture medium in place of HIV); format: cell-based; details: human; MT-4 cells, no virus, 37° C., 5 days, MTT; Table 3; read-out: CC50
# Protocol: (§1) The anti-HIV activity of each of the compounds produced in Examples was assayed by the following procedures. (1) Human T cell line MOLT-4 clone 8 persistently infected by HIV (HTLV-IIIB strain) was cultured in an RPMI-1640 medium supplemented with 10% fetal calf serum, the culture supernatant was filtered, and the titer of virus was determined; the culture supernatant was stored at -80° C. On the other hand, the test compound was diluted with the above culture medium to predetermined concentrations and distributed in 50 μl aliquots into a 96-well microtiter plate. Then, d suspension of MT-4 cells was added in 100 μl aliquots (3.5×10^4 cells per well) and then the above HIV-containing supernatant diluted with the above culture medium was added, 50 μl (60 pfu (plaque forming units)) per well. (2) The plate was incubated in a CO2 incubator at 37° C. for 5 days. Then, 30 μl/well of 3-(4,5-dimethyl thiazol-2-yl)-2,5-diphenyltetrazolium bromide (MTT) (5 mg/ml PBS) was added and the incubation was further continued for 1 hour. The surviving cells reducing MTT yield precipitation of formazan. Therefore, 150 μl portions of the culture supernatant were removed from all wells and, instead, 150 μl of a solution (10% Triton X-100 and 0.4% (v/v) HCl-added isopropyl alcohol) was added. The plate was shaken on a plate mixer to dissolve the formazan. The OD of formazan was measured with a microreader at 560 nm arid 690 nm (reference wavelength) and the result was compared with that of control.
# The cytotoxicity of each of the compounds produced in Examples was assayed. In place of the HIV-containing supernatant (the virus suspension) in (1) in Test Example 1, 50 μl of the culture medium was added to each well, and the cytotoxicity was determined in the same manner as that for (2) in Test Example 1.
# HIV (HTLV-IIIB strain) = assay: microbe, parasite or virus in culture; format: cell-based; details: Human immunodeficiency virus 1, IIIB, MT4, 120 h
# Protocol: as §1, with “(1) Human T cell line MOLT-4 clone 8 persistently infected by HIV (HTLV-IIIB strain) was cultured in an RPMI-1640 medium supplemented with 10% fetal calf serum, the culture supernatant was filtered, and the titer of virus was determined; the culture supernatant was stored at -80° C.” left out, “formazan.” for “formazan. The OD of formazan was measured with a microreader at 560 nm arid 690 nm (reference wavelength) and the result was compared with that of control.”
# [2] = MT-4 cells, 60 pfu HIV per well, 37° C., 5 days, MTT, Tables 1 and 2, read-out: EC50
EC50 (HIV (HTLV-IIIB strain); [2]) [ng/mL],Structure (SMILES),CC50 at 120 h [1] [µg/mL],EC50 (HIV (HTLV-IIIB strain)) [ng/mL]
100000,"CC(C)c1nc(CO)[nH]c1[S+]([O-])c1cc(Cl)cc(Cl)c1 (stereo not shown) [Compound I-113, [5-(3,5-dichlorophenylsulfinyl)-4-isopropyl-1H-imidazol-2-yl]methanol]",100,–
500,"CC(C)c1nc(CO)n(C)c1S(=O)(=O)c1cc(Cl)cc(Cl)c1 [Compound I-109, [5-(3,5-dichlorophenylsulfonyl)-4-isopropyl-1-methyl-1H-imidazol-2-yl]methanol]",> 100,–
> 100000,"CC(C)c1nc(CNC(=O)C(F)(F)F)n(C)c1[S+]([O-])c1cc(Cl)cc(Cl)c1 (stereo not shown) [Compound I-112, 5-(3,5-dichlorophenylsulfinyl)-4-isopropyl-1-methyl-2-trifluoroacetylaminomethyl-1H-imidazole]",> 100,–
10000,"CC(C)c1nc(CN)n(C)c1[S+]([O-])c1cc(Cl)cc(Cl)c1 (stereo not shown) [Compound I-110, 2-aminomethyl-5-(3,5-dichlorophenylsulfinyl)-4-isopropyl-1-methyl-1H-imidazole]",10 to 100,–
10000,"CC(C)c1nc(CO)[nH]c1S(=O)(=O)c1cc(Cl)cc(Cl)c1 [Compound I-114, [5-(3,5-dichlorophenylsulfonyl)-4-isopropyl-1H-imidazol-2-yl]methanol]",10 to 100,–
1000,"CC(C)c1nc(CO)n(C)c1[S+]([O-])c1cc(Cl)cc(Cl)c1 (stereo not shown) [Compound I-108, [5-(3,5-dichlorophenylsulfinyl)-4-isopropyl-1-methyl-1H-imidazol-2yl]methanol]",10 to 100,–

# Further lines, the compound ahead of its results:
Structure (SMILES),EC50 (HIV (HTLV-IIIB strain); [2]) [ng/mL],CC50 at 120 h [1] [µg/mL],EC50 (HIV (HTLV-IIIB strain)) [ng/mL]
CC(C)c1nc(COC(N)=O)n(Cc2ccccn2)c1Sc1cc(Cl)cc(Cl)c1 [Compound I-93],–,12.5,0.5 to 1
"CCCn1c(COC(N)=O)nc(C(C)C)c1Sc1cccc([N+](=O)[O-])c1 [Compound I-50, 2-carbamoyloxymethyl-4-isopropyl-5-(3-nitrophenylthio)-1-n-propyl-1H-imidazole]",8,> 100,–
"CC(C)c1nc(CO)n(CC(=O)c2ccccc2)c1Sc1cc(Cl)cc(Cl)c1 [Compound I-31, [1-benzoylmethyl-5-(3,5-dichlorophenylthio)-4-isopropyl-1H-imidazol-2-yl]methanol]",60,100,–
"CC(C)c1nc(COC(N)=O)n(Cc2ccncc2)c1Sc1cc(Cl)cc(Cl)c1 [I-93', 2-carbamoyloxymethyl-5-(3,5-dichlorophenylthio)-4-isopropyl-1-(pyridin-4-yl)methyl-1H-imidazole]",–,10 to 100,0.06 to 0.13
"CCn1c(COC(N)=O)nc(C(C)C)c1Sc1cccc([N+](=O)[O-])c1 [Compound I-49, 2-carbamoyloxymethyl-1-ethyl-4-isopropyl-5-(3-nitrophenylthio)-1H-imidazole]",–,25,4 to 8
